According to paper PMC9953468, “In Silico, In Vitro, and Ex Vivo Biological Activity of Some Novel Mebeverine Precursors” (Biomedicines, 2023):

Legend:
Assay type in all cases: cell-based
Saccharomyces cerevisiae = experiment: Antimicrobial activity, agar well diffusion method; details: Dose 0.6 mg/disk, dwell = 6 mm
Source text: (§1) Eighteen tested microorganisms including five Gram-positive bacteria (Bacillus subtilis ATCC 6633, Bacillus amyloliquefaciens 4BCL-YT, Staphylococcus aureus ATCC 25923, Listeria monocytogenes NBIMCC 8632, Enterococcus faecalis ATCC 19433), five Gram-negative bacteria (Salmonella enteritidis ATCC 13076, Klebsiella sp.—clinical isolate, Escherichia coli ATCC 25922, Proteus vulgaris ATCC 6380, Pseudomonas aeruginosa ATCC 9027), two yeasts (Candida albicans NBIMCC 74, Saccharomyces cerevisiae ATCC 9763) and six fungi (Aspergillus niger ATCC 1015, Aspergillus flavus, Penicillium sp., Rhizopus sp., Mucor sp.—plant isolates, Fusarium moniliforme ATCC 38932) from the collection of the Department of Microbiology at the University of Food Technologies—Plovdiv, Bulgaria, were selected for the antimicrobial activity test.
(§2) The antimicrobial activity of the samples was determined by the agar well diffusion method. The tested bacteria B. subtilis and B. amyloliquefaciens were cultured on LBG agar at 30 °C. The test bacteria S. aureus, L. monocytogenes, E. faecalis, S. enteritidis, Klebsiella sp., E. coli, P. vulgaris and P. aeruginosa were cultured on LBG agar at 37 °C for 24 h. The yeast C. albicans was cultured on MEA at 37 °C, while S. cerevisiae was cultured on MEA at 30 °C for 24 h. The fungi A. niger, A. flavus, Penicillium sp., Rhizopus sp., Mucor sp., and F. moniliforme were grown on MEA at 30 °C for 7 days or until sporulation.
(§3) The inocula of the tested bacteria/yeasts were prepared by homogenization of a small amount of biomass in 5 mL of sterile 0.5% NaCl. The inocula of tested fungi were prepared by the addition of 5 mL of sterile 0.5% NaCl into the tubes. After stirring by vortex V-1 plus (Biosan), they were filtered and replaced in other tubes before use. The number of viable cells and fungal spores was determined using a bacterial counting chamber Thoma (Poly-Optik, GmbH, Bad Blankenburg, Germany). Their final concentrations were adjusted to 10^8 cfu/mL for bacterial/yeast cells and 10^5 cfu/mL for fungal spores and then inoculated in preliminarily melted and tempered at 45–48 °C LBG/MEA agar media. Next, the inoculated media were transferred in a quantity of 18 mL in sterile Petri plates (d = 90 mm) (Gosselin™, Hazebrouck, France) and allowed to harden. Then, six wells (d = 6 mm) per plate were cut, and triplicates of 60 μL of each extract were pipetted into the agar wells. The Petri plates were incubated in identical conditions.
(§4) The antimicrobial activity was determined by measuring the diameter of the inhibition zones around the wells on the 24th and 48th h of incubation. […]

[1] = test system: Pseudomonas aeruginosa ATCC 9027; experiment: Antimicrobial activity, agar well diffusion method; details: Dose 0.6 mg/disk, dwell = 6 mm
Source text: as §1, §2, §3, §4

Klebsiella sp. = experiment: Antimicrobial activity, agar well diffusion method; details: Dose 0.6 mg/disk, dwell = 6 mm
Source text: as §1, §2, §3, §4

[2] = test system: Eighteen tested microorganisms (Gram-positive bacteria, Gram-negative bacteria, yeasts, fungi); experiment: Antimicrobial activity, agar well diffusion method, whole panel; details: whole panel of tested microorganisms, in words
Source text: as §1, §2
The inocula of the tested bacteria/yeasts were prepared by homogenization of a small amount of biomass in 5 mL of sterile 0.5% NaCl. […] The number of viable cells and fungal spores was determined using a bacterial counting chamber Thoma (Poly-Optik, GmbH, Bad Blankenburg, Germany). […] Next, the inoculated media were transferred in a quantity of 18 mL in sterile Petri plates (d = 90 mm) (Gosselin™, Hazebrouck, France) and allowed to harden. […]
as §4

[3] = test system: Escherichia coli ATCC 25922; experiment: Antimicrobial activity, agar well diffusion method; details: Dose 0.6 mg/disk, dwell = 6 mm
Source text: as §1, §2, §3, §4

| SMILES | Inhibition Zones (Saccharomyces cerevisiae) | Inhibition Zones [1] | Inhibition Zones (Klebsiella sp.) | antimicrobial activity [2] | Inhibition Zones [3] |
| --- | --- | --- | --- | --- | --- |
| CC(C)C(N)Cc1ccccc1 (stereo not drawn) [Compound 3, 3-Methyl-1-phenylbutan-2-amine] | 8 mm | 9 mm | 8 mm | only modest activity against Gram-negative bacteria | – |
| CC(=O)NC(Cc1ccccc1)C(C)C (stereo not drawn) [Compound 4a, N-(3-methyl-1-phenylbutan-2-yl)acetamide] | – | – | – | inhibited only the growth of Escherichia coli | 8 mm |
